Structures can show the parent of a compound that is named as a salt.
Test: Relative humidity (RH) study, visual assessment in double-vial relative humidity chambers
Type: physicochemical
Conditions: approximately 36 hours
Protocol: Relative Humidity (RH): An RH study was conducted to determine appropriate handling conditions for amorphous asenapine maleate. Samples of Batch A1 were placed in double-vial relative humidity chambers at 3.4% RH, 8.2% RH and 22.5% RH and were visually assessed after approximately 36 hours.

CN1C[C@@H]2c3ccccc3Oc3ccc(Cl)cc3[C@H]2C1 (relative stereo) [Batch A1, trans-5-chloro-2-methyl-2,3,3a,12b-tetrahydro-1H-dibenz[2,3:6,7]oxepino[4,5-c]pyrrole maleate]
physical state after storage at controlled relative humidity (visual assessment) (3.4% RH): remained solid
physical state after storage at controlled relative humidity (visual assessment) (8.2% RH): remained solid
physical state after storage at controlled relative humidity (visual assessment) (22.5% RH): deliquesced

Source: patent US20080090892A1, “AMORPHOUS ASENAPINE AND PROCESSES FOR PREPARING SAME” (N.V. Organon, priority 2006, published 2008)
